Here are results for two molecules from US12171753B2, “Crystalline forms of ALDH2 modulators” (SOPHROSYNE PHARMACEUTICALS LIMITED, priority 2021, dated 2024).

Series [1] deals with subject suffering from alcohol use disorder. Briefly: Pharmaceutical composition administered to a subject suffering from alcohol use disorder. It counts as in vivo. The method, then:
[drawing 31] […] is administered to a subject suffering from alcohol use disorder. […] The subject is also found to have less cravings on the Visual Analogue Scale of Craving, which has 4 questions to assess domains of alcohol craving: the intention to drink, loss of control, relief craving, and urge intensity with a 0-20 point visual analogue scale for each item, with 0 indicating no craving and 20 indicating severe craving.
[drawing 32] is administered to a subject suffering from alcohol use disorder. […] The subject is also found to have less cravings on the Visual Analogue Scale of Craving, which has 4 questions to assess domains of alcohol craving: the intention to drink, loss of control, relief craving, and urge intensity with a 0-20 point visual analogue scale for each item, with 0 indicating no craving and 20 indicating severe craving.

Series [2] is described as follows: Polymorphic screen: suspending 50 mg of compound in solvent, suspension outcome. It is filed as physicochemical. The conditions noted are these: left overnight. The method, then:
The polymorphic screening of the compound of Formula IV-I was performed by suspending 50 mg of the compound of Formula IV-I in each of the solvents as described in Table 12 at a volume of 1.5 mL for all but water (1 mL) in a separate vial. The vials were sealed and the suspensions were left overnight. In the following day, the vials with the compound of Formula IV-I dissolved were opened and the solutions were left to evaporate at room temperature. The solid materials were collected after the complete evaporation of the solvent. In the vials where the compound of Formula IV-I was not fully dissolved, the mixtures were left to slurrying for another 96 h. The slurries were filtered and the obtained solids were analyzed.

Structures are written as SMILES.

In the case of `C[S+]([O-])C(=O)N1CCC(O)CC1` (centres unmarked) [drawing 31], in series [1] (4 questions, 0-20 point scale per item), the “Cravings on the Visual Analogue Scale of Craving” value was “less cravings”. In series [1] (after 2 weeks of being treated), the “Craving scale after 2 weeks of treatment” value is recorded as “reduction in the craving scale”. The “Alcohol consumed over a 90 day period” value in series [1] (compared to a 90 day period prior to treatment) is reported as “consume less alcohol”. In addition, the “Percentage of no heavy drinking days” value in series [1] (during the period of treatment (e.g., 1 to 13 weeks)) is “increase in the percentage of no heavy drinking days”. In addition, the “Number of drinks consumed in the natural environment” value in series [1] (first 13 days of medication period, timeline follow-back interview) is “reduction in the number of drinks”. In series [1] (subject with alcohol use disorder), the “Alcohol drinking of the treated subject” value was “drink less or no alcohol”.

As for `C[S+]([O-])C(=O)N1CCC(O)CC1` (centres unmarked) [Formula IV-I, 1-S-Methyl 1-S-oxo 4-hydroxy-1-piperidinecarbothioate], the Suspension outcome is given as “Dissolved” in series [2] (50 mg in 1 mL H2O); “Slurry” in series [2] (50 mg in 1.5 mL 1-propanol); “Slurry” in series [2] (50 mg in 1.5 mL 2-propanol); “Slurry” in series [2] (50 mg in 1.5 mL Acetone); “Slurry” in series [2] (50 mg in 1.5 mL Acetonitrile); “Dissolved” in series [2] (50 mg in 1.5 mL Chloroform). Besides, the Suspension outcome is “Slurry” in series [2] (50 mg in 1.5 mL Cyclohexane); “Dissolved” in series [2] (50 mg in 1.5 mL Dichloromethane); “Slurry” in series [2] (50 mg in 1.5 mL EtOAc); “Dissolved” in series [2] (50 mg in 1.5 mL EtOH); “Slurry” in series [2] (50 mg in 1.5 mL Ethyl ether); “Slurry” in series [2] (50 mg in 1.5 mL Isopropyl acetate). Also, the Suspension outcome is listed as “Dissolved” in series [2] (50 mg in 1.5 mL MeOH); “Slurry” in series [2] (50 mg in 1.5 mL Methyl acetate); “Dissolved” in series [2] (50 mg in 1.5 mL Nitromethane); “Slurry” in series [2] (50 mg in 1.5 mL Octane); “Slurry” in series [2] (50 mg in 1.5 mL THF); “Slurry” in series [2] (50 mg in 1.5 mL Toluene). Further, the Suspension outcome in series [2] (50 mg in 1.5 mL n-hexane) and in series [2] (50 mg in 1.5 mL n-pentane) was “Slurry” throughout.
